The text below walks through data of patent publication US7220784B2, “Substituted stilbenes and their reactions” (priority 2000, dated 2007).

Molecules are shown by their SMILES. Several values for one entry are separate records, joined by “and”; a condition that tells them apart may be missing. Equal values may be shown once. Read-outs that look alike come from different tables or passages of the source.

A short description of one data set: Maximum tolerated dose. The note with it: mouse, in vivo; mice. From the text: The in vitro studies reported in Table 11 illustrate the structure requirements necessary for biological activity. Modifications of the A ring have shown that the methoxy groups can be replaced by alkoxy or alkyl (28,31a,32a) whilst retaining their ability to inhibit assembly of isolated tubulin. Similarly, molecules with alkyl substituents on the ethene bridge (19,20,46) retain activity both as inhibitors of tubulin assembly and are growth inhibitory in vitro. The pharmacophore consists of a stilbene in a cis configuration with a small alkyl or O-alkyl substituent at the 4-position of the B ring. […] These agents show good activity in the shape-change (permeability) assay. This test is used as an in vitro assay of vascular damage. […] 97–64H was given at either ⅔ of the maximum tolerated dose (MTD=200 mg/kg) or at ¾ of the MTD to mice bearing liver metastatic T50:80 tumours. Tumours were removed and examined for evidence of vascular damage at 2 hr and 4 hr following drug administration. Similarly a dose equivalent to ¾ of the MTD was administered and the tumours examined 24 hr and 48 hr following administration of drug. […] These effects are seen within 2 hours.

A short description of data set [1]: Pharmacokinetic profile in mice. The format is in vivo. The following applies: 200 mg/kg.
Data set [2] relates to H460 human lung cancer xenografts. Nature of the data set: Anti-tumour efficacy in xenografts of H460 human lung cancer. The format is in vivo, mice. The following applies: H460 human lung cancer xenograft. On the procedure: (2) Competition for the colchicine binding site on tubulin. The figure quoted represents the % of ^3H-colchicine bound following co-incubation of test compound and ^3H-cochicine with isolated tubulin. Where ester pro-drugs were used the experiments were carried out in the presence and absence of porcine liver esterase. • (3) Cytotoxicity/growth inhibition assay. This was carried out by the MTT assay. • (4) Permeability (shape-change) assay in endothelial cells. This was carried out using a method based on that of Watts et al. (Anticancer Res., 17, 71–75, (1997)). This involved the diffusion of a fluorescently labelled dextran through a barrier of endothelial cells (HUVEC) grown to confluence on a porous membrane. […] The anti-vascular effects of the agents were monitored by either positron emission tomography (PET) or by histologogical examination following treatment of mice bearing T50:80 murine breast tumours, or H460 human lung tumours. • (6) Anti-tumour efficacy of agents was determined in xenografts of H460 human lung cancer. Animals (n=5) were trated either with 5 daily injections and tumour size measured with time following treatment. • (7) The pharmacokinetic profile of agents was determined in mice following injection with drug. Blood was taken at various times following treatment and analysed by HPLC with UV detection. […]
(In general: Xenograft models place foreign cells or tissue in a host animal.)

In data set [3] the test system is colchicine binding site on tubulin. Nature of the data set: Competition for the colchicine binding site on tubulin.
For another data set, the system named is K562 cells. The experiment in a line: In situ ultra violet irradiation of dosed K562 cells, IC50. The format is cell-based, human. The note with it: Homo sapiens, read-out: IC50 K562.

What is called MTD is the highest dose tested that stayed within the study's limit of toxicity. Low values mean poorer tolerability, high ones better tolerability. The term Cmax denotes the maximum level reached in the sampled fluid or tissue. What is called half-life is the time in which the quantity being followed falls by half. Take `COc1ccc(C=Cc2cc(OC)c(OC)c(OC)c2)cc1F` [Compound 97-64H]: the maximum tolerated dose (MTD) in the data set “Maximum tolerated dose” turned out to be 200 mg/kg. Further, in data set [1] (mouse, in vivo, po), the Cmax was found to be 1.49 µg/mL. For the same compound, the half-life in data set [1] (mouse, in vivo, po, absorption half life) is 15 min. This compound yielded a half-life in data set [1] (mouse, in vivo, po, elimination half life) of 32 min. For the same compound, in data set [1] (oral), the “concentration achieved in vivo” value is 1490 µg/mL and the “concentration achieved in vivo (molar)” value came out at 4600 µM. Further, the “anti-tumour activity in vivo” value in data set [2] is recorded as “shows anti-tumour activity in vivo”. Moreover, the “Colchicine % Inhibition” value in data set [3] is 79% and 70%.
A word on the IC50: it is the concentration needed to halve the response being measured. With `COc1ccc(/C=C/c2cc(OC)c(OC)c(OC)c2)cc1O` [trans-CA-4, trans-combretastatin A-4], the IC50 with K562 cells (K562, 0 h, in situ UV 0 mins (Table 6)) came to 1200 nM; in the data set on K562 cells (K562, 1 min, in situ UV 1 mins (Table 6)) it was 3.6 nM; with K562 cells (K562, 2 min, in situ UV 2 mins (Table 6)) it was 2.9 nM; in the data set on K562 cells (K562, 0.05 h, in situ UV 3 mins (Table 6)) it was 1.7 nM; in the data set on K562 cells (K562, 4 min, in situ UV 4 mins (Table 6)), 4.4 nM; in the data set with K562 cells (K562, 5 min, in situ UV 5 mins (Table 6)), 2.7 nM. The half-maximal inhibitory concentration (IC50) was determined as 2.9 nM in the data set with K562 cells (K562, 0.1 h, in situ UV 6 mins (Table 6)); 1.9 nM in the data set on K562 cells (K562, 7 min, in situ UV 7 mins (Table 6)); 3 nM with K562 cells (K562, 8 min, in situ UV 8 mins (Table 6)); 2.5 nM in the data set on K562 cells (K562, 0.15 h, in situ UV 9 mins (Table 6)); 2.4 nM in the data set with K562 cells (K562, 12.5 min, in situ UV 12.5 mins (Table 6)); 2 nM in the data set with K562 cells (K562, 0.25 h, in situ UV 15.0 mins (Table 6)). For the same compound, the half-inhibitory concentration (IC50) was determined as 1.7 nM in the data set on K562 cells (K562, 17.5 min, in situ UV 17.5 mins (Table 6)); 2.7 nM in the data set on K562 cells (K562, 20 min, in situ UV 20.0 mins (Table 6)); 580 nM in the data set on K562 cells (K562, in situ UV, repeated experiment, 0 secs (Table 7)); 35 nM with K562 cells (K562, in situ UV, repeated experiment, 5 secs (Table 7)); 40 nM in the data set with K562 cells (K562, in situ UV, repeated experiment, 10 secs (Table 7)); 20 nM in the data set with K562 cells (K562, in situ UV, repeated experiment, 15 secs (Table 7)). Also, the IC50 in the data set on K562 cells (K562, in situ UV, repeated experiment, 20 secs (Table 7)) amounted to 18 nM; in the data set on K562 cells (K562, in situ UV, repeated experiment, 25 secs (Table 7)), 17 nM; in the data set with K562 cells (K562, in situ UV, repeated experiment, 30 secs (Table 7)), 15 nM; in the data set on K562 cells (K562, in situ UV, repeated experiment, 35 secs (Table 7)), 11 nM; with K562 cells (K562, in situ UV, repeated experiment, 40 secs (Table 7)), 11 nM; with K562 cells (K562, in situ UV, repeated experiment, 45 secs (Table 7)), 9 nM. For the same compound, the 50% inhibitory concentration (IC50) with K562 cells (K562, in situ UV, repeated experiment, 50 secs (Table 7)) stood at 9 nM; in the data set with K562 cells (K562, in situ UV, repeated experiment, 55 secs (Table 7)) it was 9 nM; in the data set with K562 cells (K562, in situ UV, repeated experiment, 60 secs (Table 7)), 8 nM.
